Results as given in patent publication EP4624466A1, “DEGRADER FOR DECOMPOSING CMET PROTEIN, AND PHARMACEUTICAL COMPOSITION COMPRISING SAME” (Innocure Therapeutics, Inc., priority 2022, dated 2024).
Where two headings read alike, the source gives them in different places.

Key:
[1] = test system: MKN-45; experiment: Cell viability / antiproliferative assay (WST-8), MKN-45; conditions: read-out: MKN-45 IC50;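 further: MKN-45 is a human gastric cancer line overexpressing c-MET, growth inhibition read as WST-8 formazan absorbance at 450 nm after 2 h dye incubation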
Method: c-MET overexpressing human gastric cancer cell lines [MKN45] and [SNU638] were cultured in RPMI medium with 10% fetal bovine serum, penicillin (100U/ml), and streptomycin (100mg/ml), and c-MET exon 14 skipping mutant human gastric cancer cell lines [Hs746T] were cultured in DMEM media. The c-MET overexpressing human lung cancer cell line EBC-1 was cultured in MEM media with the addition of 10% fetal bovine serum, penicillin (100U/ml), and streptomycin (100mg/ml). […] The compound synthesized in accordance with the present invention was prepared with a raw material solution of 10 mM dissolved in DMSO (dimethyl sulfoxide), and was sequentially diluted and processed.
In order to observe the inhibitory activity on cell growth, cells were dispensed in a 96-well plate at a concentration of 5,000 cells/well, and then treated with the compound prepared at various concentrations for 72 hours. The viability of the cells was calculated using GraphicPad Prism 8.0 software by adding 10 ml per well of WST-8 (water soluble tetrazolium salt) sample, which reacts with dehydrogenase present in the electron transport system of mitochondria to produce formazon, incubated for 2 hours, and measured absorbance at 450 nm.

[2] = molecular target: c-MET (Homo sapiens, UniProt P08581); experiment: c-MET protein degradation (Simple Western), MKN-45; format: cell-based; design: assess the resolution of the compound of the present invention for c-MET expressed in cells; endogenous in cells; host or cells: MKN45 (human gastric cancer); conditions: c-MET overexpressing gastric cancer cell line MKN-45, treated 24 hours
Method: In order to assess the resolution of the compound of the present invention for c-MET expressed in cells, cells were dispensed in a 12-well plate at a concentration of 2 × 10^5 cells/well, and then gastric cancer cell lines were treated with samples for 24 hours and lung cancer cell lines were treated for 48 hours. Cell lysates were collected using a scraper on ice, centrifuged at 4°C15,000 rpm for 30 min to obtain a protein-containing supernatant. Protein expression was then measured using the Simple Western Automated Western Blot System Abby instrument using 3 µg of protein for each sample. SDS and heat-induced denaturation proteins were separated by molecular weight, attached to capillary, reacted with anti-c-MET or anti-GAPDH antibodies, which are primary antibodies, and then reacted with HRP-conjugated secondary antibodies, and analyzed the protein expression signal with compass software. Protein expression was normalized based on the expression value of GAPDH, and protein development in each sample was measured as a percentage (%) based on 100% of samples treated with 0.1% DMSO carriers, and DC50 (concentration of a compound where 50% protein inhibition is achieved) was calculated from the change in protein expression amount due to compound treatment.

[3] = MKN-45 cells, 72 hours, WST-8, Table 1

c-MET, sequence (P08581 25-1390): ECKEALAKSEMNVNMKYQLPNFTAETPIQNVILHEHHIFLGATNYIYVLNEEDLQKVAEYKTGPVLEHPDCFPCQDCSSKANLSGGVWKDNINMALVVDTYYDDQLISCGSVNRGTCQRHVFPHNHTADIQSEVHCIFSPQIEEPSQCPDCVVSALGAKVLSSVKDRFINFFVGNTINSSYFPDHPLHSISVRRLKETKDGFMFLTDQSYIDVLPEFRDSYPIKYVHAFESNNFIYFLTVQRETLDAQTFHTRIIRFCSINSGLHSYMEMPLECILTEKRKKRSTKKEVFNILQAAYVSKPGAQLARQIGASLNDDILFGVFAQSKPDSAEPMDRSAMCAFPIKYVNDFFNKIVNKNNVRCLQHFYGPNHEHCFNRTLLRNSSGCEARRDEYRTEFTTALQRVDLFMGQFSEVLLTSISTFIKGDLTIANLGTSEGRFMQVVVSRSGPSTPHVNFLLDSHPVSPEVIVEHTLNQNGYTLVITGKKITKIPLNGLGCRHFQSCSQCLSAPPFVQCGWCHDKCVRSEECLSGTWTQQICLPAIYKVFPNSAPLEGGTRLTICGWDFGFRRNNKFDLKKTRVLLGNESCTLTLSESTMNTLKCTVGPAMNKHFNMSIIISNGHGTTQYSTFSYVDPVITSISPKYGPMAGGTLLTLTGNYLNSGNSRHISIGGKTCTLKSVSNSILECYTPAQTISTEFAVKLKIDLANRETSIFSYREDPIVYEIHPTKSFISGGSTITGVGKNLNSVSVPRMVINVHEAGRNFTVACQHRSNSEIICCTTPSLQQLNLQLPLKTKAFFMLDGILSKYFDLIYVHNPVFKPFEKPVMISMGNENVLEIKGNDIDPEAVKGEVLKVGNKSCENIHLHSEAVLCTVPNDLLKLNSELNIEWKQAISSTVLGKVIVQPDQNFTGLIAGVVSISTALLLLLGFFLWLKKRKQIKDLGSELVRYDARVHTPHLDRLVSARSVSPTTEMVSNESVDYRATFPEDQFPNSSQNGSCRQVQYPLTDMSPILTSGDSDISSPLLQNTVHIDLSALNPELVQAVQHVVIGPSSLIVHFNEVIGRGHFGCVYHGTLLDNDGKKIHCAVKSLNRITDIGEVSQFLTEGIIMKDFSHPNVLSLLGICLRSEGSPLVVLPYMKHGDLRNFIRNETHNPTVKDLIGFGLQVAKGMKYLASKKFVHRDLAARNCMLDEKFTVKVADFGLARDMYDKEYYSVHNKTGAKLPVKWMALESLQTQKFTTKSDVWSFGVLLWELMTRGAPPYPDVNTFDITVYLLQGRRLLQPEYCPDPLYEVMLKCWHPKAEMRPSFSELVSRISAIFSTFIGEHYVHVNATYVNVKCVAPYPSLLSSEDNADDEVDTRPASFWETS

| Compound | IC50 [1, 3] [nM] | DC50 ([2]; Table 1) [nM] | IC50 ([1]; Homo sapiens, MKN-45, 72 h) [nM] | other results |
| --- | --- | --- | --- | --- |
| 3-(6-(4-((1-(4-(1-(2-((S)-2-((5-(1-methyl-1H-pyrazole-4-yl)-1H-[1,2,3]triazolo[4,5-b]pyrazine-1-yl)methyl)morpholino)pyrimidine-5-il)benzyl)piperidine-4-il)methyl)piperazine-1-yl)piperazine-1-yl)1-oxopthalazine-2(1H)-yl)piperidine-2,6-dione [ICT-0000978] | < 100 | 100 to 1000 |  |  |
| N#Cc1cccc(-c2ccc(=O)n(Cc3cccc(-c4ncc(OCC5CCN(C(=O)CCOCCOCCOCCOCCNc6cccc7cnn(C8CCC(=O)NC8=O)c(=O)c67)CC5)cn4)c3)n2)c1 (stereo not drawn) [ICT-0000907] |  |  | < 100 |  |
| Cn1cc(-c2cnc3c(nnn3C[C@@H]3CN(c4ncc(-c5ccc(CN6CCN(C(=O)COCCOCCOCCNc7ccc8c(=O)n(C9CCC(=O)NC9=O)ncc8c7)CC6)cc5)cn4)CCO3)n2)cn1 (stereo partly drawn) [ICT-0000938, 3-[6-(12-{4-[(4-{2-[(2S)-2-{[5-(1-methyl-1H-pyrazole-4-yl)-1H-[1,2,3]triazolo[4,5-b]pyrazine-1-yl]methyl}morpholine-4-day]pyrimidine-5-yl}phenyl)methyl]piperazine-1-yl}-12-oxo-4,7,10-trioxa-1-azadodecane-1-yl)-1-oxo-1,2-dihydroptalazine-2-yl]piperidine-2,6-dione] |  | > 1000 | 100 to 1000 |  |
| Cn1cc(-c2cnc3c(nnn3C[C@@H]3CN(c4ncc(-c5ccc(CN6CCN(C(=O)COCCOCCOCCOCCNc7ccc8c(=O)n(C9CCC(=O)NC9=O)ncc8c7)CC6)cc5)cn4)CCO3)n2)cn1 (stereo partly drawn) [ICT-0000939, 3-[6-(15-{4-[(4-{2-[(2S)-2-{[5-(1-methyl-1H-pyrazole-4-yl)-1H-[1,2,3]triazolo[4,5-b]pyrazine-1-yl]methyl}morpholine-4-il]pyrimidine-5-yl}phenyl)methyl]piperazine-1-yl}-15-oxo-4,7,10,13-tetraoxa-1-azpentadecan-1-yl)-1-oxo-1,2-dihydroptalazine-2-yl]piperidin-2,6-dione] | 100 to 1000 | > 1000 |  |  |
| Cn1cc(-c2cnc3c(nnn3C[C@@H]3CN(c4ncc(-c5ccc(CN6CCN(C(=O)CCOCCOCCNc7cccc8cnn(C9CCC(=O)NC9=O)c(=O)c78)CC6)cc5)cn4)CCO3)n2)cn1 (stereo partly drawn) [ICT-0000940] |  |  | 100 to 1000 |  |
| Cn1cc(-c2cnc3c(nnn3C[C@@H]3CN(c4ncc(-c5ccc(CN6CCN(C(=O)COCCOCCOCCNc7cccc8cnn(C9CCC(=O)NC9=O)c(=O)c78)CC6)cc5)cn4)CCO3)n2)cn1 (stereo partly drawn) [ICT-0000942, 3-[8-(12-{4-[(4-{2-[(2S)-2-{[5-(1-methyl-1H-pyrazole-4-yl)-1H-[1,2,3]triazolo[4,5-b]pyrazine-1-yl]methyl}morpholine-4-day]pyrimidine-5-yl}phenyl)methyl]piperazine-1-il}-12-oxo-4,7,10-trioxa-1-azadodecane-1-yl)-1-oxo-1,2-dihydroptalazine-2-yl]piperidine-2,6-dione] | < 100 |  |  |  |
| Cn1cc(-c2cnc3c(nnn3C[C@@H]3CN(c4ncc(-c5ccc(CN6CCN(C(=O)CCOCCOCCOCCOCCNc7cccc8cnn(C9CCC(=O)NC9=O)c(=O)c78)CC6)cc5)cn4)CCO3)n2)cn1 (stereo partly drawn) [ICT-0000946, 3-[8-(16-{4-[(4-{2-[(2S)-2-{[5-(1-methyl-1H-pyrazole-4-yl)-1H-[1,2,3]triazolo[4,5-b]pyrazine-1-yl]methyl}morpholine-4-day]pyrimidine-5-yl}phenyl)methyl]piperazine-1-yl}-16-oxo-4,7,10,13-tetraoxa-1-azahexadecane-1-yl)-1-oxo-1,2-dihydroptalazine-2-yl]piperidine-2,6-dione] | 100 to 1000 |  |  |  |
| Cn1cc(-c2cnc3c(nnn3C[C@@H]3CN(c4ncc(-c5ccc(CN6CCN(C(=O)CCCCNc7cccc8cnn(C9CCC(=O)NC9=O)c(=O)c78)CC6)cc5)cn4)CCO3)n2)cn1 (stereo partly drawn) [ICT-0000959, 3-{8-[(5-{4-[(4-{2-[(2S)-2-{[5-(1-methyl-1H-pyrazole-4-yl)-1H-[1,2,3]triazolo[4,5-b]pyrazine-1-yl]methyl}morpholine-4-il]pyrimidine-5-yl}phenyl)methyl]piperazine-1-yl}-5-oxopentyl)amino]-1-oxo-1,2-dihydropthalazine-2-yl}piperidine-2,6-dione] | < 100 | < 100 |  |  |
| Cn1cc(-c2cnc3c(nnn3C[C@@H]3CN(c4ncc(-c5ccc(CN6CCN(C(=O)CCCCCCNc7cccc8cnn(C9CCC(=O)NC9=O)c(=O)c78)CC6)cc5)cn4)CCO3)n2)cn1 (stereo partly drawn) [ICT-0000960, 3-{8-[(7-{4-[(4-{2-[(2S)-2-{[5-(1-methyl-1H-pyrazole-4-yl)-1H-[1,2,3]triazolo[4,5-b]pyrazine-1-yl]methyl}morpholine-4-yl]pyrimidine-5-yl}phenyl)methyl]piperazine-1-yl}-7-oxoheptyl)amino]-1-oxo-1,2-dihydrophthalazine-2-yl}piperidine-2,6-dione] |  | 100 to 1000 | < 100 |  |
| Cn1cc(-c2cnc3c(nnn3C[C@@H]3CN(c4ncc(-c5ccc(CN6CCN(C(=O)COCCOCCOCCOCCOCCNc7cccc8cnn(C9CCC(=O)NC9=O)c(=O)c78)CC6)cc5)cn4)CCO3)n2)cn1 (stereo partly drawn) [ICT-0000967, 3-(8-((17-(4-(4-(2-((S)-2-((5-(1-methyl-1H-pyrazole-4-yl)-1H-[1,2,3]triazolo[4,5-b]pyrazine-1-yl)methyl)morpholino)pyrimidine-5-yl)benzyl)piperazine-1-yl)17-oxo-3,6,9,12,15-pentaheptacel)amino)-1-oxopthalazine-2(1H)-yl)piperidine-2,6-dione] | 100 to 1000 |  |  |  |
| Cn1cc(-c2cnc3c(nnn3C[C@@H]3CN(c4ncc(-c5ccc(CN6CCN(C(=O)CCOCCOCCOCCOCCOCCOCCNc7cccc8cnn(C9CCC(=O)NC9=O)c(=O)c78)CC6)cc5)cn4)CCO3)n2)cn1 (stereo partly drawn) [ICT-0000968] | 100 to 1000 |  |  |  |
| Cn1cc(-c2cnc3c(nnn3C[C@@H]3CN(c4ncc(-c5ccc(CN6CCN(C(=O)CCCNc7cccc8cnn(C9CCC(=O)NC9=O)c(=O)c78)CC6)cc5)cn4)CCO3)n2)cn1 (stereo partly drawn) [ICT-0000969] |  | < 100 | < 100 |  |
| Cn1cc(-c2cnc3c(nnn3C[C@@H]3CN(c4ncc(-c5ccc(CN6CCN(C(=O)CCCCCNc7cccc8cnn(C9CCC(=O)NC9=O)c(=O)c78)CC6)cc5)cn4)CCO3)n2)cn1 (stereo partly drawn) [ICT-0000970, 3-(8-((6-(4-(4-(2-((S)-2-((5-(1-methyl-1H-pyrazole-4-yl)-1H-[1,2,3]triazolo[4,5-b]pyrazine-1-yl)methyl)morpholino)pyrimidine-5-yl)benzyl)piperazine-1-yl)6-oxohexyl)amino)1-oxopthalazine-2(1H)-yl)piperidine-2,6-dione] | < 100 |  |  |  |
| Cc1nn(C2CCC(=O)NC2=O)c(=O)c2c(NCC(=O)N3CCC(COc4cnc(-c5cccc(Cn6nc(-c7cccc(C#N)c7)ccc6=O)c5)nc4)CC3)cccc12 (stereo not drawn) [ICT-0000981] |  |  | < 100 | DC50 ([2]; Table 2): > 1000 nM |
| N#Cc1cccc(-c2ccc(=O)n(Cc3cccc(-c4ncc(OCC5CCN(C(=O)CCCCCNc6ccc7c(=O)n(C8CCC(=O)NC8=O)ncc7c6)CC5)cn4)c3)n2)c1 (stereo not drawn) [ICT-0000984, 3-(1-{[3-(5-{[1-(6-{[2-(2,6-dioxopiperidin-3-yl)-1-oxo-1,2-dihydropthalazine-6-yl]amino}hexanoyl)piperidine-4-il]methoxy}pyrimidine-2-yl)phenyl]methyl}-6-oxo-1,6-dihydropyridazine-3-yl)benzonitrile] |  |  | < 100 |  |
| Cc1nn(C2CCC(=O)NC2=O)c(=O)c2ccc(NCCCC(=O)N3CCC(COc4cnc(-c5cccc(Cn6nc(-c7cccc(C#N)c7)ccc6=O)c5)nc4)CC3)cc12 (stereo not drawn) [ICT-0000989] |  |  | < 100 |  |
| Cc1nn(C2CCC(=O)NC2=O)c(=O)c2cc(N3CCN(C(=O)CN4CCC(COc5cnc(-c6cccc(Cn7nc(-c8cccc(C#N)c8)ccc7=O)c6)nc5)CC4)CC3)ccc12 (stereo not drawn) [ICT-0001115, 3-(1-(3-(5-((1-(2-(4-(3-(2,6-dioxopiperidin-3-yl)-1-methyl-4-oxo-3,4-dihydropetalazine-6-yl)piperazine-1-yl)2-oxoethyl)piperidine-4-il)methoxy)pyrimidine-2-yl)benzyl)6-oxo-1,6-dihydropyridazine-3-yl)benzonitrile] |  |  |  | DC50 ([2]; Table 2): < 100 nM |
| Cc1nn(C2CCC(=O)NC2=O)c(=O)c2cc(N3CCC(C(=O)NCCCNC(=O)CN4CCC(COc5cnc(-c6cccc(Cn7nc(-c8cccc(C#N)c8)ccc7=O)c6)nc5)CC4)CC3)ccc12 (stereo not drawn) [ICT-0001238] |  |  |  | DC50 ([2]; Table 2): > 1000 nM |
| Cc1nn(C2CCC(=O)NC2=O)c(=O)c2ccc(N3CCN(c4ccc(NCC(=O)N5CCC(COc6cnc(-c7cccc(Cn8nc(-c9cccc(C#N)c9)ccc8=O)c7)nc6)CC5)cc4)CC3)cc12 (stereo not drawn) [ICT-0001240, 3-(1-(3-(5-((1-((4-(4-(2-(2,6-dioxopiperidin-3-yl)-4-methyl-1-oxo-1,2-dihydropthalazine-6-yl)piperazine-1-yl)phenyl)glycyl)piperidine-4-il)methoxy)pyrimidine-2-yl)benzyl)6-oxo-1,6-dihydropyridazine-3-yl)benzonitrile] |  |  | < 100 |  |
| Cc1nn(C2CCC(=O)NC2=O)c(=O)c2ccc(N3CCN(CC4CCN(CC(=O)N5CCC(COc6cnc(-c7cccc(Cn8nc(-c9cccc(C#N)c9)ccc8=O)c7)nc6)CC5)CC4)CC3)cc12 (stereo not drawn) [ICT-0001256] |  |  |  | DC50 ([2]; Table 2): < 100 nM |
